In publication PMC8284473, “Preliminary Characterization of NP339, a Novel Polyarginine Peptide with Broad Antifungal Activity” (Antimicrobial Agents and Chemotherapy, 2021):
Values after ≈ are worked out from the molar mass of the structure shown. Peptide text beside a SMILES is read from it.

Assays:
C. albicans NCTC 3179 = assay type: cell-based, Candida albicans; conditions: NCTC 3179, 24 h
Experimental: MIC values were determined following the CLSI-approved Reference Method for Broth Dilution Antifungal Susceptibility Testing of Yeasts (approved standard M27-A3) ([32]) in RPMI 1640 medium (Sigma, Dorset, United Kingdom) at 35°C. For all filamentous fungi, the CLSI standard M38-A2 ([33]) was followed, in RPMI 1640 medium at 35°C. Cell growth of all fungi was followed by measuring the optical density at 530 nm (OD530) using the Powerwave XS plate reader (Biotek, Swindon, United Kingdom).

C. albicans = test: Time-kill assay in culture media; assay type: cell-based, Candida albicans; conditions: C. albicans (n = 2), inoculum 1 × 10^6 to 5 × 10^6 cells/ml, RPMI 1640, 30°C
Experimental: The tested antifungals were prepared at twice the required concentration. Then, 1 ml of the inoculum was added to 1 ml of the antifungal solution and incubated at 30°C. Every hour over the course of 8 h, 20 μl of the culture was removed and 10-fold serial dilutions were prepared (from 1 × 10^−1 to 1 × 10^−7). Then, 50 μl of each dilution was plated on SAB agar (Sigma) in triplicate. […] The colonies were counted, and the percentage killed was determined based on the reduction in the number of CFU/ml in the treated samples compared with the vehicle-treated, untreated controls.

[1] = system: C. tropicalis AM2005/0568; assay type: cell-based, Candida tropicalis; conditions: 30 passages in 0.25× MIC of the same antifungal, passage 0 = 1, average of three independent replicates
Experimental: (§1) Cell growth of all fungi was followed by measuring the optical density at 530 nm (OD530) using the Powerwave XS plate reader (Biotek, Swindon, United Kingdom).
(§2) The fungal inoculum was prepared according to the CLSI standard M27-A3 ([32]). For the analysis, 100 μl of the antifungal stock was added to a 96-well polystyrene plate in triplicate. […] The passaging was repeated 30 times. Every five passages, a full MIC analysis was done, as specified above.

A. fumigatus conidia = test: Time-kill assay in culture media; assay type: cell-based, Aspergillus fumigatus; conditions: A. fumigatus conidia (n = 2), inoculum 1 × 10^5 cells/ml, antibiotic medium 3
Experimental: (§3) For Candida spp., the cells were grown for at least 18 to 24 h at 30°C, until visible growth was observed. The cells were then centrifuged and resuspended in sterile distilled H2O and diluted to the 0.5 McFarland standard density using 2× RPMI 1640 medium. The tested antifungals were prepared at twice the required concentration. Then, 1 ml of the inoculum was added to 1 ml of the antifungal solution and incubated at 30°C. Every hour over the course of 8 h, 20 μl of the culture was removed and 10-fold serial dilutions were prepared (from 1 × 10^−1 to 1 × 10^−7). Then, 50 μl of each dilution was plated on SAB agar (Sigma) in triplicate. The plates were incubated at 30°C until colonies were observed on the control plates with vehicle-treated fungi. The colonies were counted, and the percentage killed was determined based on the reduction in the number of CFU/ml in the treated samples compared with the vehicle-treated, untreated controls.
For A. fumigatus, a subculture was grown on a SAB agar (Sigma) slant for 72 h at 35°C until sporulation. A. fumigatus cells were harvested from the slant into 0.15 M NaCl (Fisher Scientific UK, Ltd.), and conidia were isolated by passing through an EASYStrainer cell sieve (70-μm pore; Greiner Bio-One, Gloucester, United Kingdom) The conidial suspension was diluted to 1 × 10^5 CFU/ml in 2× antibiotic medium 3 (Oxoid). For germling analysis, the conidial suspension was incubated for 8 h at 35°C prior to analysis; for conidial experiments, it was used immediately. The experiment was performed as described for Candida spp.

C. auris DSMZ1092 = assay type: cell-based, Candida auris; conditions: 30 passages in 0.25× MIC of the same antifungal, passage 0 = 1, average of three independent replicates
Experimental: as §1, §2

C. auris = test: Time-kill assay in culture media; assay type: cell-based, Candida auris; conditions: C. auris (n = 1), inoculum 1 × 10^6 to 5 × 10^6 cells/ml
Experimental: as §3, with “The plates were incubated at 30°C until colonies were observed on the control plates with vehicle-treated fungi.” left out

C. albicans SC5314 = assay type: cell-based, Candida albicans; conditions: 30 passages in 0.25× MIC of the same antifungal, MIC at passage 0 normalized to 1, average of three independent replicates
Experimental: as §1, §2

C. glabrata AM2007/0125 = assay type: cell-based, Candida glabrata; conditions: 30 passages in 0.25× MIC of the same antifungal, passage 0 = 1, average of three independent replicates
Experimental: as §1, §2

C. albicans AM2003-0182 [2] = test: MIC (CLSI) of the agents used for TEM; assay type: cell-based, Candida albicans; conditions: standard CLSI methods
C. albicans AM2003-0182 [3] = test: Transmission electron microscopy of planktonic cells; assay type: cell-based, Candida albicans; conditions: 1× MIC, 30 min exposure
Experimental: For the TEM analysis, an overnight culture of C. albicans AM2003-0182 was diluted to a density of 1 × 10^8 cells/ml in 2× RPMI 1640 medium, and the mixture was incubated at 35°C for 1 h. The cells were then washed three times in sterile water and once in 0.01 M sodium phosphate buffer. […] The cells were then fixed in 2.5% (vol/vol) glutaraldehyde and stored at 4°C before analysis. For TEM analysis, the cells were dehydrated in an ethanol and acetone series before being embedded in […] resin, stained with uranyl acetate/lead citrate stains to improve contrast, sectioned to a 90-nm thickness, and mounted onto copper grids for TEM analysis. TEM micrographs were acquired using a JEM-1400 Plus JEOL transmission electron microscope. Microscopy was performed in the Microscopy and Histology Core Facility at the University of Aberdeen (United Kingdom).

Compound: N=C(N)NCCC[C@H](NC(=O)[C@H](CCCNC(=N)N)NC(=O)[C@H](CCCNC(=N)N)NC(=O)[C@H](CCCNC(=N)N)NC(=O)[C@H](CCCNC(=N)N)NC(=O)[C@H](CCCNC(=N)N)NC(=O)[C@@H](N)CCCNC(=N)N)C(=O)O [RRRRRRR]
- MIC (C. albicans NCTC 3179): >2,048 μM

Compound: OC(Cn1cncn1)(Cn1cncn1)c1ccc(F)cc1F [Fluconazole]
- Time of kill (time taken to kill 3 logs) (C. albicans; final concn 32 mg/liter = 32× MIC): 6 h

Compound: N=C(N)NCCC[C@H](NC(=O)[C@H](CCCNC(=N)N)NC(=O)[C@@H](N)CCCNC(=N)N)C(=O)O [RRR] (H-Arg-Arg-Arg-OH)
- MIC (C. albicans NCTC 3179): >2,048 μM

Compound: N=C(N)NCCC[C@H](NC(=O)[C@H](CCCNC(=N)N)NC(=O)[C@H](CCCNC(=N)N)NC(=O)[C@H](CCCNC(=N)N)NC(=O)[C@H](CCCNC(=N)N)NC(=O)[C@H](CCCNC(=N)N)NC(=O)[C@H](CCCNC(=N)N)NC(=O)[C@H](CCCNC(=N)N)NC(=O)[C@H](CCCNC(=N)N)NC(=O)[C@H](CCCNC(=N)N)NC(=O)[C@@H](N)CCCNC(=N)N)C(=O)O
- MIC (C. albicans NCTC 3179): 8 µM (≈ 13.9 µg/mL)

Compound: C[C@@H]1[C@H](O)[C@@H](C)/C=C/C=C/C=C/C=C/C=C/C=C/C=C/[C@H](O[C@@H]2O[C@H](C)[C@@H](O)[C@H](N)[C@@H]2O)C[C@@H]2O[C@](O)(C[C@@H](O)C[C@@H](O)[C@H](O)CC[C@@H](O)C[C@@H](O)CC(=O)O[C@H]1C)C[C@H](O)[C@H]2C(=O)O [Amphotericin B]
- Fold change in antifungal MIC at passage 30 [1]: 4
- Time of kill (time taken to kill 2 logs) (A. fumigatus conidia; final concn 2–8 mg/liter = 4–16× MIC): 48 h
- Fold change in antifungal MIC at passage 30 (C. auris DSMZ1092): 4
- Time of kill (time taken to kill 3 logs) (C. auris; final concn 32 mg/liter = 16× MIC (amphotericin B)): 4 h
- Fold change in antifungal MIC at passage 30 (C. albicans SC5314): 4
- Fold change in antifungal MIC at passage 30 (C. glabrata AM2007/0125): 1

Compound: CC[C@H](C)C[C@H](C)CCCCCCCCC(=O)N[C@H]1C[C@@H](O)[C@@H](NCCN)NC(=O)[C@@H]2[C@@H](O)CCN2C(=O)[C@H]([C@H](O)CCN)NC(=O)[C@H]([C@H](O)[C@@H](O)c2ccc(O)cc2)NC(=O)[C@@H]2C[C@@H](O)CN2C(=O)[C@H]([C@@H](C)O)NC1=O [Caspofungin]
- Fold change in antifungal MIC at passage 30 [1]: 8
- MIC (1× MIC, final concentration used for TEM) (C. albicans AM2003-0182 [2]): 0.5 µg/mL
- Time of kill (time taken to kill 3 logs) (C. albicans; final concn 1 mg/liter = 4× MIC): 4 h
- Time of kill (time taken to kill 2 logs) (A. fumigatus conidia; final concn 2–32 mg/liter = 1–16× MIC): 48 h
- Cell destruction (lysis) seen by TEM (C. albicans AM2003-0182 [3]): not observed
- Fold change in antifungal MIC at passage 30 (C. auris DSMZ1092): 1
- Time of kill (time taken to kill 3 logs) (C. auris; final concn 16 mg/liter = 16× MIC): 6–24 h
- Fold change in antifungal MIC at passage 30 (C. albicans SC5314): 4
- Fold change in antifungal MIC at passage 30 (C. glabrata AM2007/0125): 1

Compound: C[C@@H](c1ncncc1F)[C@](O)(Cn1cncn1)c1ccc(F)cc1F [Voriconazole]
- Time of kill (time taken to kill 2 logs) (A. fumigatus conidia; final concn 2–8 mg/liter = 16× MIC): 48 h

Compound: N=C(N)NCCC[C@H](NC(=O)[C@H](CCCNC(=N)N)NC(=O)[C@H](CCCNC(=N)N)NC(=O)[C@H](CCCNC(=N)N)NC(=O)[C@H](CCCNC(=N)N)NC(=O)[C@H](CCCNC(=N)N)NC(=O)[C@H](CCCNC(=N)N)NC(=O)[C@H](CCCNC(=N)N)NC(=O)[C@@H](N)CCCNC(=N)N)C(=O)O
- MIC (C. albicans NCTC 3179): 2,048 μM

Compound: human β-defensin 2 (GIGDPVTCLKSGAICHPVFCPRRYKQIGTCGLPGTKCCKKP; UniProt O15263 24-64, looked up) [endogenous human host defense peptide used as comparator in TEM]
- MIC (1× MIC, final concentration used for TEM) (C. albicans AM2003-0182 [2]): 25 µg/mL
- Cell destruction (lysis) seen by TEM (C. albicans AM2003-0182 [3]): not observed

Compound: CC[C@@H]([C@H](C)O)n1ncn(-c2ccc(N3CCN(c4ccc(OC[C@@H]5CO[C@@](Cn6cncn6)(c6ccc(F)cc6F)C5)cc4)CC3)cc2)c1=O [Posaconazole]
- Time of kill (time taken to kill 2 logs) (A. fumigatus conidia; final concn 4 mg/liter = 16× MIC): 24 h

Compound: N=C(N)NCCC[C@H](NC(=O)[C@H](CCCNC(=N)N)NC(=O)[C@H](CCCNC(=N)N)NC(=O)[C@H](CCCNC(=N)N)NC(=O)[C@@H](N)CCCNC(=N)N)C(=O)O [RRRRR] (H-RRRRR-OH)
- MIC (C. albicans NCTC 3179): >2,048 μM
